In PubChem BioAssay (NCI):
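Results reflect a 48-hour exposure of cells in 96-well plates to compound at five concentrations. The concentration for 50% growth inhibition is given as GI50. TGI marks complete inhibition of growth.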

Legend:
Assay in all cases: growth of human tumour cells (NCI), 48 h
[1] = system: HCC-2998 colon
[2] = system: UO-31 renal
[3] = system: U251 CNS
[4] = system: RPMI-8226 leukemia
[5] = system: HCT-116 colon
[6] = system: HOP-62 NSCLC
[7] = system: CAKI-1 renal
[8] = system: UACC-257 melanoma
[9] = system: MCF7 breast
[10] = system: SR leukemia

Structure (SMILES) | TGI [1] [µM] | TGI [2] [µM] | TGI [3] [µM] | TGI [4] [µM] | TGI [5] [µM] | TGI [6] [µM] | TGI [7] [µM] | TGI [8] [µM] | GI50 [1] [µM] | GI50 [2] [µM] | GI50 [3] [µM] | GI50 [5] [µM] | GI50 [6] [µM] | GI50 [7] [µM] | GI50 [8] [µM] | GI50 [9] [µM] | TGI [9] [µM] | TGI [10] [µM] | GI50 [10] [µM] | GI50 [4] [µM]
O=C1Nc2ccccc2N=CC1NC(=O)C(c1ccccc1)c1ccccc1 (stereo not given) | > 100 | > 100 | > 100 | > 100 | > 100 | > 100 | > 100 | > 100 |  |  |  |  |  |  |  |  |  |  |  | 
Cc1ccc(-c2nc([P+](c3ccccc3)(c3ccccc3)c3ccccc3)c(S(=O)(=O)c3ccc(C)cc3)o2)cc1 | 3.01 | 2.6 | 2.43 |  | 2.75 | 4.56 | 2.71 | 3.7 | 1.45 | 1.32 | 1.14 | 1.37 | 1.47 | 1.36 | 1.7 | 1.52 | 3.83 |  |  | 
Cc1cc(C)nc(NS(=O)(=O)c2ccc(Nc3c4ccccc4nc4c(C(=O)Nc5ccc(S(=O)(=O)N=C(N)N)cc5)cccc34)cc2)n1 | > 100 | > 100 | > 100 | > 100 |  | > 100 | > 100 | > 100 |  |  |  |  |  |  |  |  |  |  |  | 
COc1ccc(-c2cc(C(=O)Nc3ccc(C)c(C)c3)nc(NC#N)n2)cc1 |  | > 100 | > 100 | > 100 | > 100 |  | > 100 | > 100 |  |  |  |  |  |  |  |  |  |  |  | 
COCOCC/C=C/C=O | > 100 | > 100 | > 100 | > 100 | > 100 |  |  | > 100 |  |  |  |  |  |  |  |  |  | > 100 |  | 
COc1ncnc(NS(=O)(=O)c2ccc(N=C3C(=O)N(CN4CCN(c5c(F)cc6c(=O)c(C(=O)O)cn(C7CC7)c6c5OC)CC4C)c4ccc(Br)cc43)cc2)c1OC (stereo not given) |  | > 50 | > 50 | 22.3 | > 50 |  | > 50 | > 50 |  | > 50 | 19.7 | 9.96 |  | 6.21 | 16.9 | 7.1 | 41.9 | > 50 | 42.7 | 5.54
CCCCC1(C)C=C/C(=C2/C(=O)O/C(=C\C(=O)O)C2=O)O1 (stereo not given) |  | > 100 | > 100 | > 100 | > 100 | > 100 |  | > 100 |  |  |  |  |  |  |  |  |  | > 100 |  | 
N#CC(c1ccccn1)c1nc2ccccc2[nH]1 (stereo not given) | > 100 | > 100 | > 100 | > 100 | > 100 | > 100 | > 100 | > 100 |  |  |  |  |  |  |  |  |  | > 100 |  | 
O=C(CCCCCCN1CC(=O)N2[C@@H](c3ccc(Cl)c(Cl)c3)c3[nH]c4ccccc4c3C[C@H]2C1=O)NO | 8.38 | 8.86 | 8.25 |  | 6.92 | 9.35 | 8.71 | 18.2 | 3.9 | 3.52 | 2.78 | 1.47 | 3.88 | 3.43 | 3.81 | 1.87 | 15 | 3.1 | 0.689 | 
Cc1nc(C(=O)O)c2ccccc2n1 | > 100 | > 100 | > 100 | > 100 | > 100 |  | > 100 | > 100 |  |  |  |  |  |  |  |  |  | > 100 |  | 
O=S(=O)(c1cccc(N=C=S)c1)c1cccc(N=C=S)c1 | 46.7 | 75.1 | 35.4 | 83.9 | 32 | 26.5 |  | 38.5 |  |  |  |  |  |  |  |  |  |  |  | 
N#CC(C#N)c1ccc(C(=O)N2CCC[C@H]2CO)cc1 | > 100 | > 100 | > 100 | > 100 |  | > 100 | > 100 | > 100 |  |  |  |  |  |  |  |  |  |  |  | 
COCCNC(=O)C1C(=O)C(=O)N(CCOC)C1=O (stereo not given) | > 100 | > 100 | > 100 |  | > 100 | > 100 | > 100 | > 100 |  |  |  |  |  |  |  |  |  | > 100 |  | 
Cc1ccc(C)c(N2C(=O)C(=O)C(c3nc4ccccc4s3)/C(=N/NC(=O)NN)C2=O)c1 (stereo not given) | > 100 | > 100 | > 100 |  | > 100 | > 100 | > 100 | > 100 |  |  |  |  |  |  |  |  |  | > 100 |  | 
O=[N+]([O-])c1ccc(N2CCOCC2)c2c1no[n+]2[O-] | 7.25 | 5.07 | 2.32 | 4.09 | 2.24 | 6.58 | 1.89 | 10.7 | 1.53 | 1.42 | 0.984 | 0.965 | 1.61 | 0.443 | 2.76 | 0.543 | 2.96 |  |  | 1.51
